Test results as given in patent US6573279B1, “Isoquinoline derivatives or salts thereof” (priority 1999, dated 2003).
Counter-ions that a name gives are not always drawn.

Row | melting point [°C] | SMILES
1 | 111 to 112 | COc1cc2c(cc1OC)CN(C(=O)C1CCCN(CCNC(=O)c3ccc(F)c(Cl)c3)C1)CC2 (stereo not drawn) (as salt: salt) [Example 45]
2 | 186 to 188 | COc1cc2c(cc1OC)CN(C(=O)C1CCCN(CCNC(=O)c3ccc(F)c(C(F)(F)F)c3)C1)CC2 (stereo not drawn) (as salt: salt) [Example 44]
3 | 175 to 177 | COc1cc2c(cc1OC)CN(C(=O)[C@H]1CCCN(CCC(=O)Nc3ccc4c(c3)OCO4)C1)CC2 (as salt: tartrate) [Example 6, (+)-3-[(S)-3-(6,7-dimethoxy-1,2,3,4-tetrahydroisoquinoline-2-carbonyl)piperidino]-N-(3,4-methylenedioxyphenyl)propanamide D-tartrate]
4 | 116 to 119 | COc1cc2c(cc1OC)CN(C(=O)C1CCCN(CCNC(=O)c3ccc(OC(C)C)cc3)C1)CC2 (stereo not drawn) (as salt: salt) [Example 33]
5 | 180 to 181 | COc1cc2c(cc1OC)CN(C(=O)C1CCCN(CCC(=O)Nc3ccc4c(c3)OCO4)C1)CCC2 (stereo not drawn) (as salt: salt) [Example 20]
6 | 181 to 185 | COc1cc2c(cc1OC)CN(C(=O)C1CCCN(CCC(=O)Nc3cccc(Cl)c3)C1)CC2 (stereo not drawn) (as salt: HCl) [Example 12]
7 | 114 to 117 | COc1ccc(C(=O)NCCN2CCCC(C(=O)N3CCc4cc(OC)c(OC)cc4C3)C2)cc1C (stereo not drawn) (as salt: salt) [Example 26]
8 | 137 to 141 | COc1cc2c(cc1OC)CN(C(=O)C1CCCN(CCNC(=O)c3ccc(F)cc3)C1)CC2 (stereo not drawn) (as salt: salt) [Example 40]
9 | 125 to 127 | CCOc1ccc(C(=O)NCCN2CCCC(C(=O)N3CCc4cc(OC)c(OC)cc4C3)C2)cc1 (stereo not drawn) (as salt: salt) [Example 32]
10 | 162 to 164 | COc1cc2c(cc1OC)CN(C(=O)C1=CCCN(CCNC(=O)c3ccc4c(c3)OCO4)C1)CC2 [Example 46]
11 | 113 to 116 | COc1ccc(C(=O)NCCN2CCCC(C(=O)N3CCc4cc(OC)c(OC)cc4C3)C2)cc1F (stereo not drawn) (as salt: salt) [Example 27]
12 | 174 to 175 | COc1cc2c(cc1OC)CN(C(=O)[C@@H]1CCCN(CCC(=O)Nc3ccc4c(c3)OCO4)C1)CC2 (as salt: tartrate) [Example 5, (−)-3-[(R)-3-(6,7-dimethoxy-1,2,3,4-tetrahydroisoquinoline-2-carbonyl)piperidino]-N-(3,4-methylenedioxyphenyl)propanamide L-tartrate]
13 | 179 to 180 | COc1ccc2c(c1)CCN(C(=O)C1CCCN(CCC(=O)Nc3ccc4c(c3)OCO4)C1)C2 (stereo not drawn) (as salt: salt) [Example 17]
14 | 182 to 185 | COc1cc2c(cc1OC)CN(C(=O)C1CCCN(CCNC(=O)c3ccc4c(c3)OCO4)C1)CC2 (racemic) (as salt: HCl) [Example 9, (±)-N-{2-[3-(6,7-dimethoxy-1,2,3,4-tetrahydrolsoquinoline-2-carbonyl)piperidino]ethyl}-3,4-methylenedioxybenzamide hydrochloride]
15 | 130 to 138 | COc1cc2c(cc1OC)CN(C(=O)C1CCCN(CCNC(=O)c3ccc4c(c3)OCC(=O)N4C)C1)CC2 (stereo not drawn) (as salt: salt) [Example 34]
16 | 131 to 133 | COc1cc2c(cc1OC)CN(C(=O)C1CN(CCNC(=O)c3ccc4c(c3)OCO4)C1)CC2 [Example 48]
17 | 203 to 206 | COc1cc2c(cc1OC)CN(C(=O)C1CCN(CCC(=O)Nc3ccc4c(c3)OCO4)CC1)CC2 (as salt: HCl) [Example 19]
18 | 199 to 202 | COc1ccc(C(=O)NCCN2CCCC(C(=O)N3CCc4cc(OC)c(OC)cc4C3)C2)cc1OC (racemic) (as salt: HCl) [Example 11, (±)-N-{2-[3-(6,7-dimethoxy-1,2,3,4-tetrahydroisoquinoline-2-carbonyl)-piperidino]ethyl}-3,4-dimethoxybenzamide hydrochloride]
19 | 124 to 133 | COc1cc2c(cc1OC)CN(C(=O)C1CCCN(CCNC(=O)c3ccc4c(c3)N(C)C(=O)CO4)C1)CC2 (stereo not drawn) (as salt: salt) [Example 35]
20 | 138 to 140 | COc1cc2c(cc1OC)C(C)(C)CN(C(=O)C1CCCN(CCNC(=O)c3ccc4c(c3)OCO4)C1)C2 (stereo not drawn) (as salt: salt) [Example 51]
21 | 187 to 191 | COc1cc2c(cc1OC)CN(C(=O)[C@H]1CCCN(CCNC(=O)c3ccc(F)cc3)C1)CC2 (as salt: salt) (hydrate or solvate) [Example 50]
22 | 157 to 159 | COc1cc2c(cc1OC)CN(C(=O)C1CCCN(CC(=O)Nc3ccc4c(c3)OCO4)C1)CC2 (racemic) (as salt: oxalate) [Example 8, (±)-2-[3-(6,7-dimethoxy-1,2,3,4-tetrahydroisoquinoline-2-carbonyl)piperidino]-N-(3,4-methylenedioxyphenyl)ethanamide oxalate]
23 | 211 to 213 | COc1ccc(NC(=O)CCN2CCCC(C(=O)N3CCc4cc(OC)c(OC)cc4C3)C2)cc1 (racemic) (as salt: HCl) [Example 4, (±)-3-[3-(6,7-dimethoxy-1,2,3,4-tetrahydroisoquinoline-2-carbonyl)piperidino]-N-(4-methoxyphenyl)propanamide hydrochloride]

Row | melting point [°C] | SMILES
24 | 159 to 160 | COc1cc2c(cc1OC)CN(C(=O)C1=CCCN(CCC(=O)Nc3ccc4c(c3)OCO4)C1)CC2 [Example 22]
25 | 120 to 123 | COc1cccc(C(=O)NCCN2CCCC(C(=O)N3CCc4cc(OC)c(OC)cc4C3)C2)c1 (racemic) (as salt: oxalate) [Example 10, (±)-N-{2-[3-(6,7-dimethoxy-1,2,3,4-tetrahydroisoquinoline-2-carbonyl)-piperidino]ethyl}-3-methoxybenzamide oxalate]
26 | 226 to 228 | COc1cc2c(cc1OC)CN(C(=O)C1CCCN(CCC(=O)Nc3ccc4c(c3)OCO4)C1)CC2 (racemic) (as salt: HCl) [Example 2, (±)-3-[3-(6,7-dimethoxy-1,2,3,4-tetrahydroisoquinoline-2-carbonyl)piperidino]-N-(3,4-methylenedioxyphenyl)propanamide hydrochloride]
27 | 125 to 128 | COc1cc(C(=O)NCCN2CCCC(C(=O)N3CCc4cc(OC)c(OC)cc4C3)C2)ccc1C (stereo not drawn) (as salt: salt) [Example 28]
28 | 113 to 116 | COc1cc2c(cc1OC)CN(C(=O)C1CCCN(CCNC(=O)c3ccc4c(c3)OC(F)(F)O4)C1)CC2 (stereo not drawn) (as salt: salt) [Example 31]
29 | 197 to 199 | COc1cc2c(cc1OC)CN(C(=O)[C@@H]1CCCN(CCNC(=O)c3ccc(F)cc3)C1)CC2 (as salt: salt) (hydrate or solvate) [Example 49]
30 | 187 to 192 | COc1cc(NC(=O)CCN2CCCC(C(=O)N3CCc4cc(OC)c(OC)cc4C3)C2)cc(OC)c1 (racemic) (as salt: oxalate) [Example 3, (±)-3-[3-(6,7-dimethoxy-1,2,3,4-tetrahydroisoquinoline-2-carbonyl)piperidino]-N-(3,5-dimethoxyphenyl)propanamide 1/2 oxalate]
31 | 164 to 166 | COc1cc2c(cc1OC)CN(C(=O)[C@H]1CCCN(CCC(=O)Nc3ccc4c(c3)OCO4)C1)CC2 (racemic) (as salt: fumarate) (hydrate or solvate) [Example 53, (±)-3-[(S)-3-(6,7-dimethoxy-1,2,3,4-tetrahydroisoquinoline-2-carbonyl)piperidino]-N-(3,4-methylenedioxyphenyl)propanamide fumarate]
32 | 154 to 156 | COc1ccc(NC(=O)CCN2CCCC(C(=O)N3CCc4cc(OC)c(OC)cc4C3)C2)cc1OC (racemic) (as salt: HCl) [Example 1, (±)-3-[3-(6,7-dimethoxy-1,2,3,4-tetrahydroisoquinoline-2-carbonyl)piperidino]-N-(3,4-dimethoxyphenyl)propanamide hydrochloride]
33 | 113 to 116 | COc1cc2c(cc1OC)CN(C(=O)C1CCCN(CCCC(=O)Nc3ccc4c(c3)OCO4)C1)CC2 (racemic) (as salt: oxalate) [Example 7, (±)-4-[3-(6,7-dimethoxy-1,2,3,4-tetrahydroisoquinoline-2-carbonoyl)piperidino]-N-(3,4-methylenedioxyphenyl)butanamide oxalate]
34 | 133 to 136 | COc1cc2c(cc1OC)CN(C(=O)C1CCCN(CCNC(=O)c3cccc(Br)c3)C1)CC2 (stereo not drawn) (as salt: salt) [Example 41]
35 | 182 to 185 | COc1ccc(NC(=O)CCN2CCCC(C(=O)N3CCc4cc(OC)c(OC)cc4C3)C2)cn1 (stereo not drawn) (as salt: salt) [Example 21]
36 | 225 to 228 | COc1cc2c(cc1OC)C(C)(C)CN(C(=O)C1CCCN(CCC(=O)Nc3ccc4c(c3)OCO4)C1)C2 (stereo not drawn) (as salt: HCl) [Example 25]
37 | 183 to 185 | COc1cc2c(cc1OC)CN(C(=O)C1CCCN(CCC(=O)Nc3ccc4ncsc4c3)C1)CC2 (stereo not drawn) (as salt: HCl) [Example 14]
38 | 166 to 167 | COc1cc(OC)cc(C(=O)NCCN2CCCC(C(=O)N3CCc4cc(OC)c(OC)cc4C3)C2)c1 (stereo not drawn) (as salt: salt) [Example 42]
39 | 183 to 185 | COc1cc2c(cc1OC)CN(C(=O)C1CCCN(CCC(=O)Nc3ccc(C)c(F)c3)C1)CC2 (stereo not drawn) (as salt: HCl) [Example 16]
40 | 195 to 196 | O=C(CCN1CCCC(C(=O)N2CCc3ccccc3C2)C1)Nc1ccc2c(c1)OCO2 (stereo not drawn) (as salt: salt) [Example 18]
41 | 155 to 164 | COc1ccc(NC(=O)CCN2CCC=C(C(=O)N3CCc4cc(OC)c(OC)cc4C3)C2)cc1 [Example 23]
42 | 126 to 130 | COc1cc2c(cc1OC)CN(C(=O)C1CCCN(CCNC(=O)c3ccc4c(c3)OCCO4)C1)CC2 (stereo not drawn) (as salt: salt) [Example 30]
43 | 166 to 168 | COc1cc2c(cc1OC)CN(C(=O)C1CCCN(CCC(=O)Nc3ccc(OC)c(C(F)(F)F)c3)C1)CC2 (stereo not drawn) (as salt: HCl) [Example 13]
44 | 171 to 173 | COc1cc(NC(=O)CCN2CCCC(C(=O)N3CCc4cc(OC)c(OC)cc4C3)C2)ccc1C (stereo not drawn) (as salt: HCl) [Example 15]
45 | 120 to 124 | COc1cc2c(cc1OC)CN(C(=O)C1CCCN(CCNC(=O)c3ccc(F)c(F)c3)C1)CC2 (stereo not drawn) (as salt: salt) [Example 29]
